Values quoted from earlier work in patent US8252778B2, “Highly fluorinated oils and surfactants and methods of making and using same” (University of Utah Research Foundation, priority 2006, dated 2012).

Target: sstr2 (Homo sapiens, UniProt P30874)
Sequence (P30874 whole entry, species assumed): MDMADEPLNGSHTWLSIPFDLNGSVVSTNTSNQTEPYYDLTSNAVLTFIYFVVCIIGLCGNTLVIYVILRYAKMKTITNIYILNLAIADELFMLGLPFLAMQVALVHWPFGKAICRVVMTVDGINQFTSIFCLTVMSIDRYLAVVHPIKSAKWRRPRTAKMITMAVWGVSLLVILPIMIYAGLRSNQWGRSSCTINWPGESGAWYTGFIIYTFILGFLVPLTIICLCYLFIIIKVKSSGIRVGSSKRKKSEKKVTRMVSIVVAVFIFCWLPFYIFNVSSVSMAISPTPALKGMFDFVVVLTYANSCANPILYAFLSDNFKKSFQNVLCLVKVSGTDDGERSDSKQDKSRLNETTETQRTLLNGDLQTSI

affinity and specificity for sstr2: high affinity and specificity
SMILES: C[C@@H](O)[C@@H]1NC(=O)[C@H](CCCCN)NC(=O)[C@@H](Cc2c[nH]c3ccccc23)NC(=O)[C@H](Cc2ccccc2)NC(=O)[C@@H](NC(=O)[C@H](N)Cc2ccccc2)CSSC[C@@H](C(=O)N[C@H](CO)[C@@H](C)O)NC1=O [octreotide, DPhe1-c[Cys2-Phe3-DTrp-4-Lys5-Thr6-Cys7]-Thr8-NH2]
